In patent US8168677B2, “Method for treatment of inflammatory bowel disease” (Kemphys Ltd., priority 2005, dated 2012):
Values joined by “and” are separate entries in the source; they are usually repeats but may differ in a detail not shown here. Equal values may be shown once.

Legend:
[1] = test system: model rat of inflammatory bowel disease (DNBS instilled intracolonically); assay: Evaluation of Am80 using DNBS-induced model rat of inflammatory bowel disease (Example 1); type: in vivo, Wistar rats; conditions: for Presence or Absence of Adhesion (in five rats per group): number of animals with adhesion
Procedure: Male or female Wistar rats weighing 200±5 g were used to create an animal model of inflammatory bowel disease. After the animals were fasted for 24 hours, DNBS (2,4-Dinotrobenzenesulfonic Acid, 30 mg in 0.5 ml 30% ethanol) was instilled intracolonically through the anus. Each of 4-[(5,6,7,8-tetrahydro-5,5,8,8-tetramethyl-2-naphthalenyl)carbamoyl]benzoic acid (Am80, generic name: Tamibarotene) as the medicament of the present invention so as to be a dose at 0.3 mg/kg, and salazosulfapyridine (SASP), a commercially available drug for ulcerative colitis, as a comparative example (positive control drug) so as to be a dose at 300 mg/kg was administered 24 hours before and 2 hours before the DNBS infusion, and once daily for 5 days after 24 hours from the infusion. Tamibarotene or SASP was each administered orally as a suspension in 0.5% carboxymethylcellulose. For the control group, the solvent was administered orally according to the same schedule as that for SASP. The animals were subjected to anatomic examination 24 hours after the final administration, and a degree of bowel inflammation was observed. For each of the Tamibarotene-administered group, SASP-administered group, the normal group, and the control group, five rats were used.
(§1) The results are indicated as the scores of bowel inflammation (average), weight of the bowel per unit body weight (100 g body weight) (average±standard error), and the number of animals in each group that gave adhesion. The scoring of bowel inflammation were conducted by visual observation according to the method of judgment described in the reference (Am. J. Physiol., 258: G527-34, 1990). • Score of Bowel Ulceration and Inflammation (Macroscopic) • Score: observation • 0: Normal; • 1: Localized hyperemia, no ulcers; • 2: Ulceration without hyperemia or colonic wall thickening; • 3: Inflammation and ulceration at one site; • 4: Ulcers and Inflammations at two or more sites; • 5: A major damaged site extending in 1 cm or longer along the direction of the colon length; and • 6-10: When a major damaged site extends in 2 cm or longer along the direction of the colon length, a score is increased by one for each additional 1 cm over 2 cm.

[2] = test system: rat model of inflammatory bowel disease (DNBS instilled intracolonically); assay: Evaluation of retinoids which bind to RAR and RXR using DNBS-induced rat model of inflammatory bowel disease (Example 2); type: in vivo, Wistar rats; conditions: for Bowel Inflammation Score [average]: 24 h and 2 h before DNBS and once daily for 5 days, macroscopic score 0-10, N = 5; for Presence or Absence of Adhesion (in five rats per group): number of animals with adhesion
Procedure: Male or female Wistar rats weighing 200±5 g were used to create an animal model of inflammatory bowel disease. After the animals were fasted for 24 hours, DNBS (2,4-Dinotrobenzenesulfonic Acid, 30 mg in 0.5 ml 30% ethanol) was instilled intracolonically through the anus. As the medicaments of the present invention, 4-[2,3-(2,5-dimethyl-2,5-hexano)dibenzo[b,f][1,4]thiazepin-11-yl] benzoic acid (HX630) at 3 mg/kg, 4-(5H-7,8,9,10-tetrahydro-5,7,7,10,10-pentamethylbenzo[e]naphtho[2,3-b][1,4]diazepin-13-yl)benzoic acid (LE135) at 5 mg/kg, or a combination of 0.1 mg/kg of Am80 and 3 mg/kg of HX630 were used, and as a comparative example (positive control drug), 300mg/kg of salazosulfapyridine (SASP) as a commercially available drug for ulcerative colitis was used, and each drug was administered 24 hours before and 2 hours before the DNBS infusion, and once daily for 5 days after 24 hours from the infusion. Each drug was administered orally as a suspension in 0.5% carboxymethylcellulose. For the control group, the solvent was administered orally according to the same schedule. The animals were subjected to anatomic examination 24 hours after the final administration, and a degree of bowel inflammation was observed. For each of the Tamibarotene-administered group, SASP-administered group, the normal group, and the control group, five rats were used.
as §1, with “the colon” for “the bowel”

CC1(C)CCC(C)(C)c2cc(NC(=O)c3ccc(C(=O)O)cc3)ccc21 [Tamibarotene, 4-[(5,6,7,8-tetrahydro-5,5,8,8-tetramethyl-2-naphthalenyl)carbamoyl]benzoic acid]
Presence or Absence of Adhesion (in five rats per group) ([1]; Tamibarotene 0.3 mg/kg oral): significantly suppressed and 0/5

CN1c2cc3c(cc2N=C(c2ccc(C(=O)O)cc2)c2ccccc21)C(C)(C)CCC3(C)C [LE135, 4-(5H-7,8,9,10-tetrahydro-5,7,7,10,10-pentamethylbenzo[e]naphtho[2,3-b][1,4]diazepin-13-yl)benzoic acid]
Bowel Inflammation Score [average] ([2]; LE135 5 mg/kg oral): 2.4
Presence or Absence of Adhesion (in five rats per group) ([2]; LE135 5 mg/kg oral): 0/5

CC1(C)CCC(C)(C)c2cc3c(cc21)Sc1ccccc1N=C3c1ccc(C(=O)O)cc1 [HX630, 4-[2,3-(2,5-dimethyl-2,5-hexano)dibenzo[b,f][1,4]thiazepin-11-yl] benzoic acid]
Bowel Inflammation Score [average] ([2]; HX630 3 mg/kg oral): 3.4
Presence or Absence of Adhesion (in five rats per group) ([2]; HX630 3 mg/kg oral): 1/5

O=C(O)c1cc(/N=N/c2ccc(S(=O)(=O)Nc3ccccn3)cc2)ccc1O [SASP, salazosulfapyridine]
Bowel Inflammation Score [average] ([1]; SASP 300 mg/kg oral, 24 h and 2 h before DNBS and once daily for 5 days, macroscopic score 0-10, N = 5): 2
Colon weight/100 g body weight [average] ([1]; SASP 300 mg/kg oral, average ± standard error, N = 5): 0.682 ± 0.023
Presence or Absence of Adhesion (in five rats per group) ([1]; SASP 300 mg/kg oral): 2/5
